Calls of active or inactive are those of the source.
How the values were obtained:
SR = assay: Cytotoxicity against human SR cells after 48 hrs by trypan blue dye exclusion assay; type: functional
UACC-257 = assay: Cytotoxicity against human UACC257 cells after 48 hrs by trypan blue dye exclusion assay; type: functional; conditions: UACC-257, 48 h
T47D = assay: Cytotoxicity against human T47D cells after 48 hrs by trypan blue dye exclusion assay; type: functional
Paracentrotus lividus [1] = assay: Antimitotic activity against Paracentrotus lividus embryo assessed as cleavage arrest at 2 fold less effective threshold concentration after 2.5 to 6 hrs; type: functional, organism-based
UACC-62 = assay: Cytotoxicity against human UACC62 cells after 48 hrs by trypan blue dye exclusion assay; type: functional; conditions: UACC-62, 48 h
NCI/ADR-RES = assay: Cytotoxicity against human NCI/ADR-RES cells after 48 hrs by trypan blue dye exclusion assay; type: functional
SN12C = assay: Cytotoxicity against human SN12C cells after 48 hrs by trypan blue dye exclusion assay; type: functional
SF-268 = assay: Cytotoxicity against human SF268 cells after 48 hrs by trypan blue dye exclusion assay; type: functional; conditions: SF-268, 48 h
COLO 205 = assay: Cytotoxicity against human COLO205 cells after 48 hrs by trypan blue dye exclusion assay; type: functional; conditions: COLO 205, 48 h
KM12 = assay: Cytotoxicity against human KM12 cells after 48 hrs by trypan blue dye exclusion assay; type: functional; conditions: KM12, 48 h
MCF7 = assay: Cytotoxicity against human MCF7 cells after 48 hrs by trypan blue dye exclusion assay; type: functional; conditions: MCF7, 48 h
PC-3 = assay: Cytotoxicity against human PC3 cells after 48 hrs by trypan blue dye exclusion assay; type: functional; conditions: PC-3, 48 h
ACHN = assay: Cytotoxicity against human ACHN cells after 48 hrs by trypan blue dye exclusion assay; type: functional
OVCAR-8 = assay: Cytotoxicity against human OVCAR8 cells after 48 hrs by trypan blue dye exclusion assay; type: functional; conditions: OVCAR-8, 48 h
OVCAR-4 = assay: Cytotoxicity against human OVCAR4 cells after 48 hrs by trypan blue dye exclusion assay; type: functional; conditions: OVCAR-4, 48 h
SK-MEL-2 = assay: Cytotoxicity against human SK-MEL-2 cells after 48 hrs by trypan blue dye exclusion assay; type: functional; conditions: SK-MEL-2, 48 h
BT-549 = assay: Cytotoxicity against human BT549 cells after 48 hrs by trypan blue dye exclusion assay; type: functional; conditions: BT-549, 48 h
HT-29 = assay: Cytotoxicity against human HT-29 cells after 48 hrs by trypan blue dye exclusion assay; type: functional; conditions: HT-29, 48 h
NCI-H322M = assay: Cytotoxicity against human NCI-H322M cells after 48 hrs by trypan blue dye exclusion assay; type: functional
NCI-H460 = assay: Cytotoxicity against human NCI-H460 cells after 48 hrs by trypan blue dye exclusion assay; type: functional; conditions: NCI-H460, 48 h
HCT-116 = assay: Cytotoxicity against human HCT116 cells after 48 hrs by trypan blue dye exclusion assay; type: functional; conditions: HCT-116, 48 h
RXF 393 = assay: Cytotoxicity against human RXF393 cells after 48 hrs by trypan blue dye exclusion assay; type: functional; conditions: RXF 393, 48 h
EKVX = assay: Cytotoxicity against human EKVX cells after 48 hrs by trypan blue dye exclusion assay; type: functional
OVCAR-3 = assay: Cytotoxicity against human OVCAR3 cells after 48 hrs by trypan blue dye exclusion assay; type: functional; conditions: OVCAR-3, 48 h
Paracentrotus lividus [2] = assay: Microtubule destabilizing activity in Paracentrotus lividus embryo assessed as embryo spinning at 2 fold less effective threshold concentration after 15 mins to 20 hrs; type: functional, organism-based
Paracentrotus lividus [3] = assay: Antimitotic activity against Paracentrotus lividus embryo assessed as cleavage alteration at 2 fold less effective threshold concentration after 2.5 to 6 hrs; type: functional, organism-based
OVCAR-5 = assay: Cytotoxicity against human OVCAR5 cells after 48 hrs by trypan blue dye exclusion assay; type: functional; conditions: OVCAR-5, 48 h
NCI-H226 = assay: Cytotoxicity against human NCI-H226 cells after 48 hrs by trypan blue dye exclusion assay; type: functional; conditions: NCI-H226, 48 h
CAKI-1 = assay: Cytotoxicity against human CAKI-1 cells after 48 hrs by trypan blue dye exclusion assay; type: functional; conditions: CAKI-1, 48 h
SK-MEL-5 = assay: Cytotoxicity against human SK-MEL-5 cells after 48 hrs by trypan blue dye exclusion assay; type: functional; conditions: SK-MEL-5, 48 h
DU-145 = assay: Cytotoxicity against human DU145 cells after 48 hrs by trypan blue dye exclusion assay; type: functional; conditions: DU-145, 48 h
IGROV-1 = assay: Cytotoxicity against human IGROV1 cells after 48 hrs by trypan blue dye exclusion assay; type: functional; conditions: IGROV-1, 48 h
MOLT-4 = assay: Cytotoxicity against human MOLT4 cells after 48 hrs by trypan blue dye exclusion assay; type: functional; conditions: MOLT-4, 48 h
MDA-MB-435 = assay: Cytotoxicity against human MDA-MB-435 cells after 48 hrs by trypan blue dye exclusion assay; type: functional; conditions: MDA-MB-435, 48 h
MDA-MB-231 = assay: Cytotoxicity against human MDA-MB-231 cells after 48 hrs by trypan blue dye exclusion assay; type: functional; conditions: MDA-MB-231, 48 h
HCT-15 = assay: Cytotoxicity against human HCT15 cells after 48 hrs by trypan blue dye exclusion assay; type: functional; conditions: HCT-15, 48 h
SK-OV-3 = assay: Cytotoxicity against human SKOV3 cells after 48 hrs by trypan blue dye exclusion assay; type: functional; conditions: SK-OV-3, 48 h
786-0 = assay: Cytotoxicity against human 786-0 cells after 48 hrs by trypan blue dye exclusion assay; type: functional; conditions: 786-0, 48 h
RPMI-8226 = assay: Cytotoxicity against human RPMI8226 cells after 48 hrs by trypan blue dye exclusion assay; type: functional; conditions: RPMI-8226, 48 h
LOX IMVI = assay: Cytotoxicity against human LOXIMVI cells after 48 hrs by trypan blue dye exclusion assay; type: functional
A498 = assay: Cytotoxicity against human A498 cells after 48 hrs by trypan blue dye exclusion assay; type: functional; conditions: A498, 48 h
SK-MEL-28 = assay: Cytotoxicity against human SK-MEL-28 cells after 48 hrs by trypan blue dye exclusion assay; type: functional; conditions: SK-MEL-28, 48 h
[4] = Cytotoxicity against human Hs 578T cells after 48 hrs by trypan blue dye exclusion assay; type: functional
SNB-75 = assay: Cytotoxicity against human SNB75 cells after 48 hrs by trypan blue dye exclusion assay; type: functional; conditions: SNB-75, 48 h
SF-539 = assay: Cytotoxicity against human SF539 cells after 48 hrs by trypan blue dye exclusion assay; type: functional; conditions: SF-539, 48 h
M14 = assay: Cytotoxicity against human M14 cells after 48 hrs by trypan blue dye exclusion assay; type: functional; conditions: M14, 48 h
SW-620 = assay: Cytotoxicity against human SW620 cells after 48 hrs by trypan blue dye exclusion assay; type: functional; conditions: SW-620, 48 h
HL-60(TB) = assay: Cytotoxicity against human HL-60(TB) cells after 48 hrs by trypan blue dye exclusion assay; type: functional; conditions: HL-60, 48 h
NCI-H23 = assay: Cytotoxicity against human NCI-H23 cells after 48 hrs by trypan blue dye exclusion assay; type: functional; conditions: NCI-H23, 48 h
CCRF-CEM = assay: Cytotoxicity against human CCRF-CEM cells after 48 hrs by trypan blue dye exclusion assay; type: functional
UO-31 = assay: Cytotoxicity against human UO31 cells after 48 hrs by trypan blue dye exclusion assay; type: functional; conditions: UO-31, 48 h
SNB-19 = assay: Cytotoxicity against human SNB19 cells after 48 hrs by trypan blue dye exclusion assay; type: functional; conditions: SNB-19, 48 h
HOP-92 = assay: Cytotoxicity against human HOP92 cells after 48 hrs by trypan blue dye exclusion assay; type: functional; conditions: HOP-92, 48 h
HCC 2998 = assay: Cytotoxicity against human HCC2998 cells after 48 hrs by trypan blue dye exclusion assay; type: functional; conditions: HCC 2998, 48 h
U-251 = assay: Cytotoxicity against human U251 cells after 48 hrs by trypan blue dye exclusion assay; type: functional; conditions: U-251, 48 h
SF-295 = assay: Cytotoxicity against human SF295 cells after 48 hrs by trypan blue dye exclusion assay; type: functional; conditions: SF-295, 48 h
Malme-3M = assay: Cytotoxicity against human MALME-3M cells after 48 hrs by trypan blue dye exclusion assay; type: functional
TK-10 = assay: Cytotoxicity against human TK10 cells after 48 hrs by trypan blue dye exclusion assay; type: functional; conditions: TK-10, 48 h
A549 = assay: Cytotoxicity against human A549 cells after 48 hrs by trypan blue dye exclusion assay; type: functional; conditions: A549, 48 h
NCI-H522 = assay: Cytotoxicity against human NCI-H522 cells after 48 hrs by trypan blue dye exclusion assay; type: functional; conditions: NCI-H522, 48 h
MDA-MB-468 = assay: Cytotoxicity against human MDA-MB-468 cells after 48 hrs by trypan blue dye exclusion assay; type: functional; conditions: MDA-MB-468, 48 h

COc1ccc2c(c1)C(c1cc(OC)c3c(c1)OCO3)C1=C(COC1=O)N2 (stereo unspecified)
GI50 (SR): 324 nM | GI50 (UACC-257): > 100000 nM | GI50 (T47D): 50500 nM | Activity (Paracentrotus lividus [1]): inactive | GI50 (UACC-62): 88.1 nM | GI50 (NCI/ADR-RES): 289 nM | GI50 (SN12C): 622 nM | GI50 (SF-268): 805 nM | GI50 (COLO 205): 268 nM | GI50 (KM12): 254 nM | GI50 (MCF7): 254 nM | GI50 (PC-3): 358 nM | GI50 (ACHN): 1570 nM | GI50 (OVCAR-8): 595 nM | GI50 (OVCAR-4): 762 nM | GI50 (SK-MEL-2): 429 nM | GI50 (BT-549): 1190 nM | GI50 (HT-29): 326 nM | GI50 (NCI-H322M): 283 nM | GI50 (NCI-H460): 19200 nM | GI50 (HCT-116): 457 nM | GI50 (RXF 393): 130 nM | GI50 (EKVX): 982 nM | GI50 (OVCAR-3): 234 nM | Activity (Paracentrotus lividus [2]): inactive | Activity (Paracentrotus lividus [3]): inactive | GI50 (OVCAR-5): 629 nM | GI50 (NCI-H226): 23300 nM | GI50 (CAKI-1): 709 nM | GI50 (SK-MEL-5): 269 nM | GI50 (DU-145): 399 nM | GI50 (IGROV-1): 679 nM | GI50 (MOLT-4): 569 nM | GI50 (MDA-MB-435): 49 nM | GI50 (MDA-MB-231): 698 nM | GI50 (HCT-15): 485 nM | GI50 (SK-OV-3): 318 nM | GI50 (786-0): 594 nM | GI50 (RPMI-8226): 494 nM | GI50 (LOX IMVI): 702 nM | GI50 (A498): 138 nM | GI50 (SK-MEL-28): 206 nM | GI50 [4]: 199 nM | GI50 (SNB-75): 48.7 nM | GI50 (SF-539): 359 nM | GI50 (M14): 247 nM | GI50 (SW-620): 377 nM | GI50 (HL-60(TB)): 287 nM | GI50 (NCI-H23): 317 nM | GI50 (CCRF-CEM): 424 nM | GI50 (UO-31): 33100 nM | GI50 (SNB-19): 518 nM | GI50 (HOP-92): 425 nM | GI50 (HCC 2998): 568 nM | GI50 (U-251): 805 nM | GI50 (SF-295): 82.5 nM | GI50 (Malme-3M): > 100000 nM | GI50 (TK-10): > 100000 nM | GI50 (A549): 491 nM | GI50 (NCI-H522): 348 nM | GI50 (MDA-MB-468): 230 nM

From ChEMBL document CHEMBL2010711, “Synthesis and comparative evaluation of 4-oxa- and 4-aza-podophyllotoxins as antiproliferative microtubule destabilizing agents” (Bioorg Med Chem Lett, 2012)
